# Assay results as given in patent US5001064A, “Phosphatidylinositol 4-kinase” (Washington University, priority 1988, dated 1991).
# “And” between values parts separate entries of the source, which are not always exact repeats. Identical values can stand only once. “Also recorded” adds a separate entry of the source. Like-named read-outs stand apart in the source and are kept apart here.
# Experiments:
# PtdIns 4-kinase [1] = molecular target: T1, PtdIns 4-kinase (Bos taurus, UniProt A6QLN5); test: Influence of divalent cations (Mg2+, Ca2+) on PtdIns 4-kinase activity; type: biochemical, bovine
# T1 construct: It constitutes the major PtdIns 4-kinase activity of bovine uteri; from tissue; host or cells: bovine uterus (acetone powder, purified over ammonium sulfate, Mono Q, S-Sepharose, Mono Q, Mono P and hydroxylapatite)
# Procedure: The reaction was terminated by the addition of 12 μl of cold HCl, 120 μl of cold methanol, 150 μl of chloroform, and 40 μl of H2 O. The extracted samples were centrifuged at 12,000 × g for 1 min. and the aqueous layer removed and discarded. When needed, the organic phase was washed with 40 μl of cold methanol and 40 μl of cold 1.0 N HCl, centrifuged at 12,000 × g, and the aqueous layer was removed. The organic phase was then dried under vacuum in a Savant speed-vac, resuspended in 40 μl of chloroform/methanol (2:1), and chromatographed on potassium oxalate-impregnated Silica Gel 60 thin layer chromatography plates (TLC). […] For two-dimensional thin layer chromatography, the preceding solvent system was used for the first dimension, and chloroform/methanol/acetic acid/water (50:39:1:10) was used for the second dimension. Standards were visualized by exposing the TLC plate to iodine vapor. The reaction product, phosphatidylinositol 4-phosphate, was visualized by autoradiography, and the corresponding area of the TLC plate was scraped and quantitated by Cherenkov counting. […] For tests utilizing [^3 H]PtdIns, the corresponding areas of the TLC plates were scraped and the silica powder was suspended in a gel of Aquasol/H2 O (4:1) before counting. All assays (except column fractions) were done in duplicate or triplicate.
# [2] = tested on: PtdIns 4-kinase/PtdIns-4-P 5-kinase purified from bovine brain myelin; conditions: Saltiel et al., Biochem. J. 241, 759-763 (1987); cited from earlier work
# PtdIns 4-kinase [3] = molecular target: T1, PtdIns 4-kinase; test: PtdIns 4-kinase activity assay: kinetic parameters, specific activity, pH optimum; type: biochemical, bovine; conditions: for Km: assuming a molecular weight of 835.2 for PtdIns, read-out: apparent Km for PtdIns
# Procedure: (§1) PtdIns 4-kinase activity was assayed in 60 μl at 30° C. in 20 mM BisTris-HCl (pH 7.0), 10 mM MgCl2, 1.0% Triton X-100, 0.25 mg/ml phosphatidylinositol, and 150 μM ATP (1.25 μCi[-^32 P]ATP), unless otherwise noted. The reaction was terminated by the addition of 12 μl of cold HCl, 120 μl of cold methanol, 150 μl of chloroform, and 40 μl of H2 O. The extracted samples were centrifuged at 12,000 × g for 1 min. and the aqueous layer removed and discarded. When needed, the organic phase was washed with 40 μl of cold methanol and 40 μl of cold 1.0 N HCl, centrifuged at 12,000 × g, and the aqueous layer was removed. The organic phase was then dried under vacuum in a Savant speed-vac, resuspended in 40 μl of chloroform/methanol (2:1), and chromatographed on potassium oxalate-impregnated Silica Gel 60 thin layer chromatography plates (TLC). The solvent system used consisted of chloroform/methanol/ammonium hydroxide/water (51:39.6:3:8.4). For two-dimensional thin layer chromatography, the preceding solvent system was used for the first dimension, and chloroform/methanol/acetic acid/water (50:39:1:10) was used for the second dimension. Standards were visualized by exposing the TLC plate to iodine vapor. The reaction product, phosphatidylinositol 4-phosphate, was visualized by autoradiography, and the corresponding area of the TLC plate was scraped and quantitated by Cherenkov counting. This assay was linear with respect to both protein concentration and time. For tests utilizing [^3 H]PtdIns, the corresponding areas of the TLC plates were scraped and the silica powder was suspended in a gel of Aquasol/H2 O (4:1) before counting. All assays (except column fractions) were done in duplicate or triplicate.
# The purified PtdIns 4-kinase was used to determine the kinetic parameters of this enzyme for ATP and PtdIns. Optimal enzymatic activity was found at concentrations of ATP above 100 μM. […] In order to avoid potential effects on enzymatic activity due to changes in the Triton X-100/PtdIns micelles used as substrate, a constant molar ratio of Triton X-100 to PtdIns was used, and the concentration of Triton X-100 was maintained above its critical micellar concentration. […] The different Vmax values may be explained by the fact that the ATP substrate saturation curve was performed at a pH of 7.4 rather than 7.0.
# In order to optimize the assay of this enzyme, the pH optimum for Ptdlns 4-kinase was determined. This enzyme was optimally active in the pH range of 6.0-7.0 (FIG. 4). Above a pH of 7.0 and below a pH of 6.0 the activity of this enzyme decreased sharply.
# PtdIns 4-kinase [4] = molecular target: T1, PtdIns 4-kinase; test: Specificity of PtdIns 4-kinase for a nucleotide phosphoryl donor ([3H]PtdIns as substrate); type: biochemical, bovine
# Procedure: as §1, with “This assay was linear with respect to both protein concentration and time.” left out
# [5] = nonlinear regression, Hill equation
# T1 sequence (A6QLN5 1-479): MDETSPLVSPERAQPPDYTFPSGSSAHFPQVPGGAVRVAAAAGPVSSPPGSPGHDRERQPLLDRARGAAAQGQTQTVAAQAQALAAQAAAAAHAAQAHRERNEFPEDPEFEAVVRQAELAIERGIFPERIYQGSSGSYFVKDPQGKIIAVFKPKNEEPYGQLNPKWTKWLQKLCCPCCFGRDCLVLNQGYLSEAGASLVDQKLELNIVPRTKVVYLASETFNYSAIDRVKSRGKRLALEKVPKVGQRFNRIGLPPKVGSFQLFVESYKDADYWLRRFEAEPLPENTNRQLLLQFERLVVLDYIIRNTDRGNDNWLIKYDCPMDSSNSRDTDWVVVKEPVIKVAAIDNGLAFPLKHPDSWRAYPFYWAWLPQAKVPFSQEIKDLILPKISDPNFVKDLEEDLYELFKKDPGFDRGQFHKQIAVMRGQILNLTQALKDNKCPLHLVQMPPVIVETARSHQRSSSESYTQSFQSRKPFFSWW
molecule,measurement,setting,value
[Ca+2] [Ca^2+],IC50,"PtdIns 4-kinase [1]; 100 μM ATP, 100 μM EGTA, FIG. 6, read-out: free Ca2+ concentration giving 50% inhibition",~300 µM
phosphatidylinositol [PtdIns],Km,[2],400 µM
same,PtdIns concentration for saturation of enzyme activity,PtdIns 4-kinase [3]; FIG. 3B,above 0.2 mg/ml
same,Km,PtdIns 4-kinase [3]; listed as phosphatidylinositol (PtdIns),~26 µM
same,Km,PtdIns 4-kinase [3],26 µM and ~26 µM
same,"Vmax, PtdIns concentration varied",PtdIns 4-kinase [3]; pH 7.0,3.3 µmol/mg/min
same,apparent Km for PtdIns,"PtdIns 4-kinase [3]; purified enzyme, pH 7.0 (Tris-HCl), constant Triton X-100/PtdIns ratio",22 µg/mL
Nc1ncnc2c1ncn2[C@@H]1O[C@H](COP(=O)(O)OP(=O)(O)OP(=O)(O)O)[C@@H](O)[C@H]1O [ATP],utilization as phosphoryl donor (words),PtdIns 4-kinase [4]; [3H]PtdIns as substrate,utilized; also recorded: will utilize
same,activity at 150 µM,PtdIns 4-kinase [4]; read-out: Relative activity with nucleotide donor,100%
same,ATP concentration for optimal enzymatic activity,PtdIns 4-kinase [3]; FIG. 3A,above 100 μM
same,"Vmax, ATP concentration varied",PtdIns 4-kinase [3]; pH 7.4,2.2 µmol/mg/min
[Mg+2] [Mg^2+],Hill coefficient of Mg2+ dependence,PtdIns 4-kinase [1]; [5],1.9
same,Ks of Mg2+ dependence,PtdIns 4-kinase [1]; [5],0.36
